According to US9216181B2 (Southwest Research Institute, priority 2011, dated 2015):
“And” between values parts separate entries of the source, which are not always exact repeats. Equal entries are not always repeated. Structures can show the parent of a compound that is named as a salt.

test system: BMP-2; test: BMP-2 fold change of JHU library compounds, confirmed by qPCR; assay type: cell-based, human; details: JHU library compounds; non-treated = 1.00
Excerpt: To further verify the technique, a 2T3 mouse pre-osteoblast cell line derived from calvaria courtesy of Dr. Steve Harris, UTHSCSA, was utilized to visually screen the compounds of the BIOMOL library and JHU libraries, purchased from John Hopkins University including 2387 compounds (solution in wells). Specifically, Murine 2T3 were thawed from one frozen cryovial and re-seeded into two T-75 tissue culture flasks grown in Alpha MEM with 10% FBS, Glutamine, and Pen/Strip antibiotics. Cells were incubated in a humidified 37° C. under 5% CO2 for 48 hours or when cells reached 80% confluence. After reaching confluency, the 2T3 were trypsinized and resuspended in pre-warm growth media to a cell density of 5×10^4 cells/mL. Approximately 100 uL of cell suspension was seeded to a 96 well plate to give a final 5,000 cells per well. Plate was incubated overnight at 37° C. and spent media was aspirated and replace with 100 uL of growth media with 5-10 uM of presumptive drug compounds. A set of controls were untreated and treated with 10 uM of Lovastatin to be used as a visual reference morphological screening.
Human mesenchymal stem cells (LONZA, Catalog PT2501) were maintained in Mesenchymal stem cells basal media (MSCBM CAT#PT-3238). Early passage cells were plated in triplicate at 2×10^4 cells/cm^2 using six well tissue culture plates and grown in humidified 5% CO2 at 37° C. for 24 hours. Spent media was replaced by assay media of drugs to be tested in same media as above at 10 μM final concentration. Untreated cells were used as the control group. […] RNA concentration and integrity was assessed by absorbance 260/280 and electrophoresis in 1% Agarose with formaldehyde loading dye. For TaqMan gene expression, cDNA was synthesized from 2 μg of total RNA using the High Capacity cDNA Reverse Transcription Kit (Applied Biosystems, Cat. 4368814). The resulting cDNA were diluted 1:100 for TaqMan and amplified by real-time quantitative PCR. […] A cocktail of universal master mix (Applied Biosystems, 4369016) were prepared individually for both set of primers which contained Taq Polymerase, dNTPs, and buffer. Template cDNA's were added separately to respective individual wells in triplicate samples. The PCR were performed on StepOne Plus Real Time System instrument (Applied Biosystems). The amplification program consisted of 1 cycle of 95° C. with 10 minute hold (hot start) followed by 50 cycles of 95° C. with 15 second annealing hold and 1 minute 60° C. specified acquisition hold. […] Change in gene expression was determined by the expression ΔΔCt relative method.
Included in the tables is the target or common medical use for each compounds.

Going from `CC(=O)OCC(=O)[C@@]1(O)CC[C@H]2[C@@H]3C[C@H](C)C4=CC(=O)C=C[C@]4(C)[C@H]3[C@@H](O)C[C@@]21C` [6alpha-METHYLPREDNISOLONE ACETATE] to `Nc1c2ccccc2nc2ccccc12` [Aminacrine (9-Aminoacridine)], the “Fold change (BMP-2)” value rises from 35.00 fold to 5762.00 fold.

Compared with `COc1cc(NS(C)(=O)=O)ccc1Nc1c2ccccc2nc2ccccc12` [Amsacrine], `CC(=O)[O-].CC(=O)[O-].[Cd+2]` [Cadmium Acetate] is lower in “Fold change (BMP-2)” value: 85.00 fold for the first, 8.00 fold for the second.

Compared with `CC(C)(C)CC(C)(C)c1ccc(O)c(Cc2ccc(Cl)cc2Cl)c1` [Clofoctol], `C[C@@H]1C[C@@H]([C@H](O)CC2CC(=O)NC(=O)C2)C(=O)[C@@H](C)C1` [Cycloheximide] is higher in “Fold change (BMP-2)” value: 11.00 fold for the first, 34.00 fold for the second.

Going from `Oc1ccc(CCN2CCC(Nc3nc4ccccc4n3Cc3ccc(F)cc3)CC2)cc1` [Desmethyl astemizole] to `COc1ccc(-c2cc(=O)c3c(O)cc(O[C@@H]4O[C@H](CO[C@@H]5O[C@@H](C)[C@H](O)[C@@H](O)[C@H]5O)[C@@H](O)[C@H](O)[C@H]4O)cc3o2)cc1O` [Diosmin], the “Fold change (BMP-2)” value falls from 75.00 fold to 9.00 fold.

Compared with `CC[C@H]1CN2CCc3cc(OC)c(OC)cc3[C@@H]2C[C@@H]1C[C@H]1NCCc2cc(OC)c(OC)cc21` [Emetine], `CC[C@@H](C(=O)[C@@H](C)[C@@H](O)[C@H](C)CCc1ccc(C)c(O)c1C(=O)[O-])[C@H]1O[C@](CC)([C@H]2CC[C@](O)(CC)[C@H](C)O2)C[C@@H]1C.[Na+]` [Laslocid Sodium] is lower in “Fold change (BMP-2)” value: 220.00 fold for the first, 4.00 fold for the second.

First: O=[N+]([O-])c1ccc(O)c2ncccc12 [Nitroxoline (8-hydroxy 5-nitroquinoline)]
Second: O=P([O-])([O-])OC1C(OP(=O)([O-])[O-])C(OP(=O)([O-])[O-])C(OP(=O)([O-])[O-])C(OP(=O)([O-])[O-])C1OP(=O)([O-])[O-].[Na+].[Na+].[Na+].[Na+].[Na+].[Na+].[Na+].[Na+].[Na+].[Na+].[Na+].[Na+] (stereo not drawn) [Phytic acid, dodecasodium salt hydrate]
The “Fold change (BMP-2)” value of the first is higher: 18.00 fold for the first, 15.00 fold for the second.

Compared with `Cc1cc(/C=C/c2ccc3cc(N(C)C)ccc3[n+]2C)c(C)n1-c1ccccc1` [Pyrvinium pamoate], `C=C(C)[C@H]1Cc2c(ccc3c2O[C@@H]2COc4cc(OC)c(OC)cc4[C@@H]2C3=O)O1` [ROTENONE] is lower in “Fold change (BMP-2)” value: 398.00 fold for the first, 61.00 fold for the second.

First: C[CH2][Hg][S]c1ccccc1C(=O)[O-].[Na+] [THIMEROSAL]
Second: CN(C)C(=S)SSC(=S)N(C)C [THIRAM]
The “Fold change (BMP-2)” value of the first is lower: 23.00 fold for the first, 36.00 fold for the second.

First: C=C(NC(=O)C(=C)NC(=O)c1csc(C2=N[C@@H]3c4csc(n4)[C@H]4NC(=O)c5csc(n5)[C@H]([C@](C)(O)[C@@H](C)O)NC(=O)[C@H]5CSC(=N5)/C(=C/C)NC(=O)[C@H]([C@@H](C)O)NC(=O)c5csc(n5)[C@]3(CC2)NC(=O)[C@H](C)NC(=O)C(=C)NC(=O)[C@H](C)NC(=O)[C@H]([C@@H](C)CC)N[C@@H]2C=Cc3c([C@H](C)O)cc(nc3[C@H]2O)C(=O)O[C@@H]4C)n1)C(N)=O [Thiostrepton]
Second: CC[C@@]1(O)C(=O)OCc2c1cc1n(c2=O)Cc2cc3c(CN(C)C)c(O)ccc3nc2-1 [Topotecan]
The “Fold change (BMP-2)” value of the first is lower: 5.00 fold for the first, 365.00 fold for the second.

Compared with `CCC1=C[C@@H]2CN(C1)Cc1c([nH]c3ccccc13)[C@@](C(=O)OC)(c1cc3c(cc1OC)N(C)[C@H]1[C@@](O)(C(=O)OC)[C@H](OC(C)=O)[C@]4(CC)C=CCN5CC[C@]31[C@@H]54)C2` [Vinorelbine tartrate], Acriflavine hydrochloride is higher in “Fold change (BMP-2)” value: 803.00 fold for the first, 1491.00 fold for the second.

Going from Brilliant Blue to Proflavine hemisulfate salt hydrate, the “Fold change (BMP-2)” value rises from 111.00 fold to 177.00 fold.

Verteporfin was tested, and the “Fold change (BMP-2)” value was 6.00 fold.

With `COc1ccc(C[C@H]2NC[C@H](O)[C@H]2OC(C)=O)cc1` [Anisomycin] the “Fold change (BMP-2)” value was 670.00 fold and 387.00 fold.
